Measured values taken from paper PMC10607708 (Journal of natural products, 2021).
Where two headings read alike, the source gives them in different places.

Assays:
[1] = Saliva levels after intraperitoneal administration of ATB; type: in vivo, C57BL/6 mice; conditions: for detection in mouse saliva: i.p. 500 mg/kg ATB q.d., 7 consecutive days
PGE2 = PGE2 assay in LPS-stimulated SCC-9 cells; type: cell-based; conditions: LC-MS/MS
[2] = type: in vivo, C57BL/6 mice; conditions: for bioavailability: C57BL/6, mouse, whole blood, ip, 500 mg/kg; for AUC0-t /Dose / Cmax/Dose: blood
Stability in saliva = type: in vitro ADME
[3] = Pharmacokinetics after i.v. administration of ATB, blood; type: in vivo, C57BL/6 mice; conditions: 500 mg/kg ATB IV, matrine dosage 2.79 mg/kg
Cal-27 = test: MTT anti-proliferation assay in Cal-27 cells; type: cell-based; conditions: in words
[4] = test system: salivary gland adenoid cystic carcinoma cells (ACC-M); conditions: in vitro; cited from earlier work
[5] = Pharmacokinetics after oral administration of ATB or pure KACs, blood; type: in vivo, C57BL/6 mice; conditions: for AUC0-t /Dose / Cmax/Dose: blood
[6] = saliva, 500 mg/kg ATB IP Day 7, matrine dosage 2.79 mg/kg
[7] = 5 mg/kg KAC Oral (pure compound), matrine dosage 5.00 mg/kg
[8] = 100 mg/kg ATB Oral, matrine dosage 0.56 mg/kg
[9] = 500 mg/kg ATB Oral, matrine dosage 2.79 mg/kg
[10] = 4000 mg/kg ATB Oral, matrine dosage 22.32 mg/kg
[11] = 500 mg/kg ATB IP Day 1, matrine dosage 2.79 mg/kg
[12] = 500 mg/kg ATB IP Day 7, matrine dosage 2.79 mg/kg

With `CC1=C2C(=O)O[C@@H](c3ccoc3)[C@]2(C)CCC1` [Fraxinellone, fraxinellone] the “detection in mouse saliva” value [1] was “no Frax or Maac detected”, the “inhibition of PGE2 production” value (PGE2; 25 μM) was “significant inhibition” and the bioavailability [2] was 2.8 ± 2.1%.

With `O=C1CCC[C@@H]2[C@H]3CCCN4CCC[C@@H](CN12)[C@@H]34` [Matrine, matrine] the stability in saliva (Stability in saliva; room temperature) was 4 h, the stability in saliva (Stability in saliva; −20 °C) was 170 h and the “AUC0-t /Dose” value [3] was 1830.0 ± 1241.2 (hr*ng/mL)/(mg/kg). For the same compound, the Cmax/Dose [3] was 1408.3 ± 835.8 (ng/mL)/(mg/kg), the AUC(0-t) ([1]; C57BL/6, mouse, saliva, ip, 500 mg/kg) was 2680 ± 1660 ng·h/mL and the “detection in mouse saliva” value [1] was “detected”. The “AUC0-t /Dose” value [1, 6] was 952.8 ± 594.4 (hr*ng/mL)/(mg/kg), the Cmax/Dose [1, 6] was 1533.9 ± 823.5 (ng/mL)/(mg/kg) and the “inhibition effect against Cal-27 cells” value (Cal-27) was “moderate inhibition effect”. The “inhibition of PGE2 production” value (PGE2; 50 μM) was “significant inhibition”, the “effect on adhesion and invasion properties of ACC-M cells” value [4] was “inhibit” and the “AUC0-t /Dose” value [5, 7] was 46.9 ± 13.0 (hr*ng/mL)/(mg/kg). For the same compound, the Cmax/Dose [5, 7] was 22.0 ± 7.4 (ng/mL)/(mg/kg), the “AUC0-t /Dose” value [5, 8] was 58.5 ± 32.7 (hr*ng/mL)/(mg/kg) and the Cmax/Dose [5, 8] was 25.9 ± 20.5 (ng/mL)/(mg/kg). For the same compound, the “AUC0-t /Dose” value [5, 9] was 43.1 ± 21.3 (hr*ng/mL)/(mg/kg), the Cmax/Dose [5, 9] was 19.3 ± 10.2 (ng/mL)/(mg/kg) and the “AUC0-t /Dose” value [5, 10] was 164.1 ± 60.0 (hr*ng/mL)/(mg/kg). For the same compound, the Cmax/Dose [5, 10] was 31.8 ± 10.6 (ng/mL)/(mg/kg), the “increase of dose-normalized AUC” value ([5]; oral ATB, from 500 mg/kg to 4000 mg/kg) was ~ 400% and the bioavailability [2] was 28.9 ± 11%. The “AUC0-t /Dose” value [2, 11] was 528.7 ± 200.9 (hr*ng/mL)/(mg/kg), the Cmax/Dose [2, 11] was 292.4 ± 147.8 (ng/mL)/(mg/kg) and the “AUC0-t /Dose” value [2, 12] was 592.0 ± 434.7 (hr*ng/mL)/(mg/kg). The Cmax/Dose [2, 12] was 197.8 ± 144.1 (ng/mL)/(mg/kg) and the “accumulation in the body after multiple-dose administration” value ([2]; in words, Fig 5) was “no accumulation”.

In the case of `Oc1ccc2c(c1)OCC1c3cc4c(cc3OC21)OCO4` (stereo not shown) [Maackiain, maackiain], the “detection in mouse saliva” value [1] is reported as “no Frax or Maac detected” and the bioavailability [2] is reported as 4.8 ± 4.2%.
